Where two headings read alike, the source gives them in different places.
Key:
TrCel7A = target: T1, TrCel7A (Trichoderma reesei, UniProt P62694); assay: Cellobiose inhibition of MUL hydrolysis by TrCel7A; format: biochemical; settings: Ki for cellobiose, MUL substrate (5 μM)
T1 construct: TrCel7A was purified from the culture filtrate of Tr QM 9414 as described previously; made in house; host or cells: Trichoderma reesei QM 9414 culture filtrate (native producer)
From the text: The cellobiose inhibition of GH7 CBHs is most often studied on low-Mw model substrates. However, it has been shown that the inhibition of CBHs acting on low-Mw substrates appears to be much stronger than that on cellulose substrates. The Ki values for cellobiose inhibition of GH7 CBHs measured on low-Mw substrates are in the micromolar range [44, 51, 52], whereas those measured on cellulose are in the low- to high-millimolar range [28, 31, 32]. […] Unfortunately, the inhibition of this enzyme on cellulose has not been studied. We also studied the cellobiose inhibition of GH7 CBHs acting on MUL. The initial rates of MUL hydrolysis measured in the presence and absence of added cellobiose were first analyzed according to Equation 1, and the IC50 values were found using Equation 2. […] The inhibition of MUL hydrolysis is attributable to the binding of cellobiose to the product sites (+1/+2) of TrCel7A [52]. […]
For the inhibition of enzyme acting on the low-Mw substrate, the initial rates of the hydrolysis of MUL in the presence and absence of added cellobiose were followed. […] Reactions were stopped by the addition of NH3 (final concentration 0.1 M), and the released 4-methylumbelliferone was quantified by fluorescence using excitation and emission wavelengths of 360 nm and 450 nm, respectively.

TaCel7A = TaCel7A (Thermoascus aurantiacus, UniProt A7WNU2); assay: Inhibition of synergistic hydrolysis of 14C-BC by TaCel7A (supplemented with EG TrCel5A); format: biochemical; settings: 14C-BC substrate, read-out: IC50 for cellobiose
Protocol: To study the cellobiose inhibition of GH7 CBHs, the synergistic hydrolysis of ^14C-BC in the presence of added cellobiose was followed (Figure 3, Additional file 1: Figures S1 and S2). Because the cellobiose inhibition of the EG TrCel5A is much weaker than that of GH7 CBHs, the inhibition of synergistic hydrolysis apparently reflects the inhibition of CBH. The strength of cellobiose inhibition was analyzed using plots of (DCB/DCB=0) versus [cellobiose], where DCB and DCB=0 represent the degree of conversion of ^14C-BC in the presence and absence of cellobiose, respectively (Figure 4, Additional file 1: Figure S3). […]
where [CB] is the concentration of cellobiose; [^14CBC] is the concentration of ^14C-BC used in the experiment; and C1, C2 and H are empirical constants. Equation 5 differs from Equation 1 by the presence of constant H. H was included to improve the fit and is a constant that accounts for the background radioactivity (the degree of conversion that is independent of CBH). The degree of conversion resulting from the activity of the EG was measured in a separate experiment (Additional file 1: Figure S4) and was subtracted from the degree of conversion resulting from the synergistic hydrolysis. […] Provided with the values of C1, C2 and H, the value of IC50 was calculated as follows: […]

Sequence of TaCel7A (A7WNU2 entry or part of it): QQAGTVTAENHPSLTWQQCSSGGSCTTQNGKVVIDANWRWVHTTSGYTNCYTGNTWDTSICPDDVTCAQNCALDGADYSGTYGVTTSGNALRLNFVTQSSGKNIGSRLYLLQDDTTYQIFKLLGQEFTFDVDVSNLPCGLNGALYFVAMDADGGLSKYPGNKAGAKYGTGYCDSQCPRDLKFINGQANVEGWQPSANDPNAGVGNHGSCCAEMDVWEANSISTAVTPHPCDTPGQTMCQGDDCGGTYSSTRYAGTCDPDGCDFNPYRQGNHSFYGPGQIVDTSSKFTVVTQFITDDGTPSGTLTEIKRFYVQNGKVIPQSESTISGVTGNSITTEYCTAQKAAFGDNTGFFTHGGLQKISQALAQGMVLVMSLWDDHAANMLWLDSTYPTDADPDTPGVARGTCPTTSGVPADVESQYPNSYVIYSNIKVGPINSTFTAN
T1 sequence (P62694 18-513): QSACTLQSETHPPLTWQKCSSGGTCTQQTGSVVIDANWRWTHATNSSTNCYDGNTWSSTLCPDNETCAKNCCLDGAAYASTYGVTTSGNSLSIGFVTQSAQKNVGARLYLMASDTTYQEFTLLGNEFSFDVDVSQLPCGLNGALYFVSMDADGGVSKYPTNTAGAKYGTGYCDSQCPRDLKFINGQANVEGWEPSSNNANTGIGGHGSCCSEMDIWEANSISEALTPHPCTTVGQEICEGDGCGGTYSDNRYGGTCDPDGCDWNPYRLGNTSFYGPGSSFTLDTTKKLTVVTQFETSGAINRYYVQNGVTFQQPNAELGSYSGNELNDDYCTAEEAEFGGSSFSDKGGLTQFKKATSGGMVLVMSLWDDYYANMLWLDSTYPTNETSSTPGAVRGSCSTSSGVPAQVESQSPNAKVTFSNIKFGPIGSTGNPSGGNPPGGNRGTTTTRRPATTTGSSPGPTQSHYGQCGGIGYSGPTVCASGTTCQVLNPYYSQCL

O=C[C@H](O)[C@@H](O)[C@H](O[C@@H]1O[C@H](CO)[C@@H](O)[C@H](O)[C@H]1O)[C@H](O)CO [cellobiose, Cellobiose]
Ki (TrCel7A; 35°C): 40 µM
Ki (TrCel7A; 50°C): 124 µM
IC50 (TaCel7A; 35°C): 580 ± 350 µM
IC50 (TaCel7A; 50°C): 930 ± 100 µM

From publication PMC3726336, “Product inhibition of cellulases studied with ^14C-labeled cellulose substrates” (Biotechnology for Biofuels, 2013)
